{
  "source": "patent US20220034868A1",
  "about": "“CARDIOTOXICITY ASSESSMENT METHOD” (ZEON CORPORATION, priority 2018, published 2022)",
  "test_system": "iCell Cardiomyocytes^2",
  "assay": "Cardiotoxicity assessment: cell-secreted BNP before and after drug addition (Human BNP ELISA Kit), 1060R 96-well plate",
  "assay_type": "cell-based",
  "settings": "Example 1; 1060R 96-well plate (surface free energy 34 mN/m), fibronectin coated; final doxorubicin 10^-6 M to 10^-14 M; 16 hours at 37° C.; n=3; FIG. 1",
  "text": "As a culture container a 96-well plate with 96 cylindrical wells each having a bottom area of 0.32 cm^2 was obtained by injection molding of ZEONOR® 1060R (ZEONOR is a registered trademark in Japan, other countries, or both) (ZEON Corporation, hydrogenated norbornene ring-opened polymer, hereinafter simply “1060R”) as an alicyclic structure-containing polymer. The culture container was sterilized with ethylene oxide gas (hereinafter, this culture container is referred to as “1060R 96-well plate”). The surface free energy at the inner bottom surface (cell-contacting surface, or culture surface) of each well of the 1060R 96-well plate was 34 mN/m. The surface free energy was measured using surface energy evaluation inks (Arcotest GmbH).\nTo each well of the […] 96-well plate was added 200 μL of 10 μg/mL human fibronectin (Corning Incorporated, product number: 356008) solution in sterile water and incubated at 37° C. for 2 hours to coat the inner bottom surface of each well with human fibronectin. Human fibronectin solution was removed from each well. […]\nSupernatant samples before and after doxorubicin addition were measured for BNP level using Human BNP ELISA Kit (RayBiotech, product number: ELH-BNP).",
  "data": [
    {"molecule": "COc1cccc2c1C(=O)c1c(O)c3c(c(O)c1C2=O)C[C@@](O)(C(=O)CO)C[C@@H]3O[C@H]1C[C@H](N)[C@H](O)[C@H](C)O1", "note": "[doxorubicin]", "values": [
      {"measurement": "cell-secreted BNP concentration difference before and after addition of doxorubicin", "value": "BNP concentration difference increases with increasing doxorubicin concentration"}
    ]}
  ]
}
